Results from patent US20250382293A1, “COMPOUNDS AND METHODS FOR YAP/TEAD MODULATION AND INDICATIONS THEREFOR” (OPNA BIO SA, priority 2023, published 2025).

Test system: TEAD-dependent transcription
Assay: Inhibitor activity against TEAD-dependent transcription in a cell-based reporter assay (MSTO-211H+12XGTIIC luciferase)
Conditions: Homo sapiens; MSTO-211H+12XGTIIC cells, 24 hours compound incubation, luminescence normalized to cell viability signal; read-out: MSTO-211H GMean IC50 (uM) Cell Assay Reporter Cell Variant: TEAD
Excerpt: Determine Inhibitor Activity Against TEAD-Dependent Transcription in a Cell-Based Reporter Assay
The human mesothelioma cell line MSTO-211H was stably transfected with a pGL4.21 plasmid containing a synthetic promoter with 12 copies of the GTIIC TEAD response element that drives the expression of a luciferase reporter gene 1 using Lipofectamine transfection reagent (Thermo Fisher). Transfected cells were selected using puromycin and single cell clones expressing this construct (referred to as MSTO-211H+12XGTIIC) were generated by limiting dilution. MSTO-211H cells was characterized by genetic alterations in key components of the Hippo pathway^2, resulting in up-regulation of YAP/TEAD-mediated transcription. […] To evaluate TEAD inhibitors, the MSTO-211H+12XGTIIC cell line was seeded in a 96-well plate in 50 μL of culture media at 1×10^4 cells per well and incubated at 37° C. overnight. Serial dilutions of compounds (in total volume of 50 μL of culture media) were added to the cells and incubated at 37° C. for 24 hours. Each plate included cells treated with DMSO as high controls and cells treated with 20 μM of the reference compound K-975 (a known TEAD inhibitor) 3 as low controls. Cell viability was assayed by the addition of 25 μL of CellTiter-Fluor reagent (Promega) followed by a 30-minute incubation at 37° C. and quantification of the fluorescence signal (Ex400/Em505). Subsequently, luciferase expression was assayed by the addition of 25 μL of ONE-Glo reagent (Promega) followed by a 10-minute incubation at room temperature and quantification of the luminescence signal. The luminescence signal was normalized to the fluorescence signal to correct for any loss in cell viability over the 24-hour compound incubation period. The percentage of inhibition of normalized luminescence signal, indicative of compound-mediated inhibition of TEAD-dependent transcription, at individual compound concentrations relative to high and low controls was calculated. The data were analyzed by using nonlinear regression to generate IC50 values for individual compounds.

Compound	IC50 [µM]
O=C(CCS(=O)(=O)C(F)(F)F)N1CCc2c(cccc2Oc2ccc(C(F)(F)F)nc2)C1 [O-0002, 1-(5-((6-(trifluoromethyl)pyridin-3-yl)oxy)-3,4-dihydroisoquinolin-2(1H)-yl)-3-((trifluoromethyl)sulfonyl)propan-1-one]	0.001 to 10
O=C(CCS(=O)(=O)C(F)(F)F)N1CCc2c(ncnc2Oc2ccc(C(F)(F)F)cc2)C1 [O-0003, 1-(4-(4-(trifluoromethyl)phenoxy)-5,8-dihydropyrido[3,4-d]pyrimidin-7(6H)-yl)-3-((trifluoromethyl)sulfonyl)propan-1-one]	0.001 to 10
C=CC(=O)N1CCc2cc(Oc3ccc(C(F)(F)F)cc3)ccc2C1 [O-0058, 1-(6-(4-(trifluoromethyl)phenoxy)-3,4-dihydroisoquinolin-2(1H)-yl)prop-2-en-1-one]	0.001 to 10
C=CS(=O)(=O)N1CCc2cc(Oc3ccc(C(F)(F)F)cc3)ccc2C1 [O-0064, 6-(4-(trifluoromethyl)phenoxy)-2-(vinylsulfonyl)-1,2,3,4-tetrahydroisoquinoline]	0.001 to 10
O=C(CCl)N1CCc2cc(Oc3ccc(C(F)(F)F)cc3)ccc2C1 [O-0070, 2-chloro-1-(6-(4-(trifluoromethyl)phenoxy)-3,4-dihydroisoquinolin-2(1H)-yl)ethan-1-one]	0.001 to 10
O=C(c1c[nH]c(C(F)(F)F)n1)N1CCc2cc(Oc3ccc(C(F)(F)F)cc3)ccc2C1 [O-0074, (2-(trifluoromethyl)-1H-imidazol-4-yl)(6-(4-(trifluoromethyl)phenoxy)-3,4-dihydroisoquinolin-2(1H)-yl)methanone]	0.001 to 10
O=S(=O)(c1ccccc1)N1CCc2cc(Oc3ccc(C(F)(F)F)cc3)ccc2C1 [O-0104, 2-(phenylsulfonyl)-6-(4-(trifluoromethyl)phenoxy)-1,2,3,4-tetrahydroisoquinoline]	10 to 100
CCCNS(=O)(=O)c1nc(C(=O)N2CCc3c(cccc3Oc3ccc(C(F)(F)F)cc3)C2)cs1 [O-0105, N-propyl-4-(5-(4-(trifluoromethyl)phenoxy)-1,2,3,4-tetrahydroisoquinoline-2-carbonyl)thiazole-2-sulfonamide]	0.001 to 10
CS(=O)(=O)Nc1nc(C(=O)N2CCc3c(cccc3Oc3ccc(C(F)(F)F)c(F)c3)C2)co1 [O-0106, N-(4-(5-(3-fluoro-4-(trifluoromethyl)phenoxy)-1,2,3,4-tetrahydroisoquinoline-2-carbonyl)oxazol-2-yl)methanesulfonamide]	10 to 100
CNS(=O)(=O)c1nc(C(=O)N2CCc3c(cccc3Oc3ccc(C(F)(F)F)cc3)C2)cs1 [O-0107, N-methyl-4-(5-(4-(trifluoromethyl)phenoxy)-1,2,3,4-tetrahydroisoquinoline-2-carbonyl)thiazole-2-sulfonamide]	0.001 to 10
CCNS(=O)(=O)c1nc(C(=O)N2CCc3c(cccc3Oc3ccc(C(F)(F)F)cc3)C2)cs1 [O-0108, N-ethyl-4-(5-(4-(trifluoromethyl)phenoxy)-1,2,3,4-tetrahydroisoquinoline-2-carbonyl)thiazole-2-sulfonamide]	0.001 to 10
CS(=O)(=O)Nc1nc(C(=O)N2CCc3c(cccc3Oc3ccc(C(F)(F)F)c(F)c3)C2)cs1 [O-0109, N-(4-(5-(3-fluoro-4-(trifluoromethyl)phenoxy)-1,2,3,4-tetrahydroisoquinoline-2-carbonyl)thiazol-2-yl)methanesulfonamide]	10 to 100
CS(=O)(=O)Nc1nc(C(=O)N2CCc3c(cccc3Oc3ccc(C(F)(F)F)cc3)C2)cs1 [O-0110, N-(4-(5-(4-(trifluoromethyl)phenoxy)-1,2,3,4-tetrahydroisoquinoline-2-carbonyl)thiazol-2-yl)methanesulfonamide]	0.001 to 10
CS(=O)(=O)N1CCCC(N2CCc3c(cccc3Oc3ccc(C(F)(F)F)cc3)C2)C1 (stereo not shown) [O-0111, 2-(1-(methylsulfonyl)piperidin-3-yl)-5-(4-(trifluoromethyl)phenoxy)-1,2,3,4-tetrahydroisoquinoline]	0.001 to 10
O=S(=O)(N1CCC(N2CCc3c(cccc3Oc3ccc(C(F)(F)F)cc3)C2)C1)C(F)(F)F (stereo not shown) [O-0112, 5-(4-(trifluoromethyl)phenoxy)-2-(1-((trifluoromethyl)sulfonyl)pyrrolidin-3-yl)-1,2,3,4-tetrahydroisoquinoline.]	0.001 to 10
C=CS(=O)(=O)N1CCC(N2CCc3c(cccc3Oc3ccc(C(F)(F)F)cc3)C2)C1 (stereo not shown) [O-0113, 5-(4-(trifluoromethyl)phenoxy)-2-(1-(vinylsulfonyl)pyrrolidin-3-yl)-1,2,3,4-tetrahydroisoquinoline]	0.001 to 10
C=CC(=O)N1CCC(N2CCc3c(cccc3Oc3ccc(C(F)(F)F)cc3)C2)C1 (stereo not shown) [O-0114, 1-(3-(5-(4-(trifluoromethyl)phenoxy)-3,4-dihydroisoquinolin-2(1H)-yl)pyrrolidin-1-yl)prop-2-en-1-one]	0.001 to 10
CS(=O)(=O)N1CC(N2CCc3c(cccc3Oc3ccc(C(F)(F)F)cc3)C2)C1 [O-0115, 2-(1-(methylsulfonyl)azetidin-3-yl)-5-(4-(trifluoromethyl)phenoxy)-1,2,3,4-tetrahydroiso-quinoline]	0.001 to 10
O=S(=O)(N1CC(N2CCc3c(cccc3Oc3ccc(C(F)(F)F)cc3)C2)C1)C(F)(F)F [O-0116, 5-(4-(trifluoromethyl)phenoxy)-2-(1-((trifluoromethyl)sulfonyl)azetidin-3-yl)-1,2,3,4-tetrahydroisoquinoline]	0.001 to 10
C=CS(=O)(=O)N1CC(N2CCc3c(cccc3Oc3ccc(C(F)(F)F)cc3)C2)C1 [O-0118, 5-(4-(trifluoromethyl)phenoxy)-2-(1-(vinylsulfonyl)azetidin-3-yl)-1,2,3,4-tetrahydroisoquinoline.]	10 to 100
C=CC(=O)N1CC(N2CCc3c(cccc3Oc3ccc(C(F)(F)F)cc3)C2)C1 [O-0119, 1-(3-(5-(4-(trifluoromethyl)phenoxy)-3,4-dihydroisoquinolin-2(1H)-yl)azetidin-1-yl)prop-2-en-1-one]	0.001 to 10
CS(=O)(=O)N1CCC(N2CCc3c(cccc3Oc3ccc(C(F)(F)F)cc3)C2)CC1 [O-0120, 2-(1-(methylsulfonyl)piperidin-4-yl)-5-(4-(trifluoromethyl)phenoxy)-1,2,3,4-tetrahydroisoquinoline]	0.001 to 10
O=S(=O)(N1CCC(N2CCc3c(cccc3Oc3ccc(C(F)(F)F)cc3)C2)CC1)C(F)(F)F [O-0121, 5-(4-(trifluoromethyl)phenoxy)-2-(1-((trifluoromethyl)sulfonyl)piperidin-4-yl)-1,2,3,4-tetrahydroisoquinoline]	0.001 to 10
C=CS(=O)(=O)N1CCC(N2CCc3c(cccc3Oc3ccc(C(F)(F)F)cc3)C2)CC1 [O-0122, 5-(4-(trifluoromethyl)phenoxy)-2-(1-(vinylsulfonyl)piperidin-4-yl)-1,2,3,4-tetrahydroisoquinoline]	10 to 100
C=CC(=O)N1CCC(N2CCc3c(cccc3Oc3ccc(C(F)(F)F)cc3)C2)CC1 [O-0123, 1-(4-(5-(4-(trifluoromethyl)phenoxy)-3,4-dihydroisoquinolin-2(1H)-yl)piperidin-1-yl)prop-2-en-1-one]	0.001 to 10
